# Source: ChEMBL document CHEMBL5137008, “Recent advances of antitumor shikonin/alkannin derivatives: A comprehensive overview focusing on structural classification, synthetic approaches, and mechanisms of action” (Eur J Med Chem, 2022)
# Experiments:
# SJRH30 = experiment: Anticancer activity against human Rh30 cells assessed as inhibition of cell proliferation incubated for 72 hrs by SRB assay; type: functional, cell-based; settings: SJRH30, 72 h
# MOLT-4 = experiment: Anticancer activity against human MOLT-4 cells assessed as inhibition of cell proliferation incubated for 72 hrs by SRB assay; type: functional, cell-based; settings: MOLT-4, 72 h
# A549 [1] = experiment: Anticancer activity against human A549 cells assessed as inhibition of cell proliferation incubated for 72 hrs by SRB assay; type: functional, cell-based; settings: A549, 72 h
# [2] = Anticancer activity against human A875 cells assessed as inhibition of cell growth incubated for 24 hrs by MTT assay; type: functional, cell-based; settings: A875, 24 h
# HeLa [3] = experiment: cells; settings: Homo sapiens, 24 h
# [4] = Antitubulin activity against bovine brain tubulin polymerization preincubated with compound followed by GTP addition by turbidimetry-based spectrophotometric method; design: species or system Bos taurus
# [5] = Cytotoxicity against human L02 cells assessed as inhibition of cell growth incubated for 24 hrs by MTT assay; type: toxicity, cell-based
# HepG2 [6] = experiment: Anticancer activity against human HepG2 cells assessed as inhibition of cell growth incubated for 24 hrs by MTT assay; type: functional, cell-based; settings: HepG2, 24 h
# A549 [7] = experiment: Anticancer activity against human A549 cells assessed as inhibition of cell growth incubated for 72 hrs by MTT assay; type: functional, cell-based; settings: A549, 72 h
# [8] = Anticancer activity against human A875 cells assessed as inhibition of cell growth incubated for 72 hrs by MTT assay; type: functional, cell-based; settings: A875, 72 h
# SW872 = experiment: Anticancer activity against human SW872 cells assessed as inhibition of cell growth incubated for 72 hrs by MTT assay; type: functional, cell-based; settings: SW872, 72 h
# HeLa [9] = experiment: Antiproliferative activity against human HeLa cells assessed as inhibition of cell proliferation incubated for 20 hrs by MTT assay; type: functional, cell-based
# MCF7 = experiment: Antiproliferative activity against human MCF7 cells assessed as inhibition of cell proliferation incubated for 20 hrs by MTT assay; type: functional, cell-based; settings: MCF7, 20 h
# HepG2 [10] = experiment: Antiproliferative activity against human HepG2 cells assessed as inhibition of cell proliferation incubated for 20 hrs by MTT assay; type: functional, cell-based; settings: HepG2, 20 h
# [11] = Antiproliferative activity against human BGC cells assessed as inhibition of cell proliferation incubated for 20 hrs by MTT assay; type: functional, cell-based
# A549 [12] = experiment: Antiproliferative activity against human A549 cells assessed as inhibition of cell proliferation incubated for 20 hrs by MTT assay; type: functional, cell-based; settings: A549, 20 h
# L02 = experiment: Antiproliferative activity against human L02 cells assessed as inhibition of cell proliferation incubated for 20 hrs by MTT assay; type: functional, cell-based; settings: L02, 20 h
# MGC-803 = experiment: Anticancer activity against human MGC-803 cells incubated for 48 hrs by MTT assay; type: functional, cell-based; settings: MGC-803, 48 h
# U-87 MG = experiment: Anticancer activity against human U87 cells incubated for 48 hrs by MTT assay; type: functional, cell-based, U-87MG ATCC
# SGC-7901 = experiment: Anticancer activity against human SGC-7901 cells incubated for 48 hrs by MTT assay; type: functional, cell-based; settings: SGC-7901, 48 h, read-out: IC50
# SMMC-7721 = experiment: Anticancer activity against human SMMC-7721 cells incubated for 48 hrs by MTT assay; type: functional, cell-based; settings: SMMC-7721, 48 h
# [13] = Cytotoxicity against human L02 cells incubated for 48 hrs by MTT assay; type: toxicity, cell-based
# A549 [14] = experiment: Antiproliferative activity against human A549 cells assessed as reduction in cell viability incubated for 24 hrs by MTT assay; type: functional, cell-based; settings: A549, 24 h
# HeLa [15] = experiment: Antiproliferative activity against human HeLa cells assessed as reduction in cell viability incubated for 24 hrs by MTT assay; type: functional, cell-based
# HepG2 [16] = experiment: Antiproliferative activity against human HepG2 cells assessed as reduction in cell viability incubated for 24 hrs by MTT assay; type: functional, cell-based; settings: HepG2, 24 h
# [17] = Cytotoxicity against human L02 cells assessed as reduction in cell viability incubated for 24 hrs by MTT assay; type: toxicity, cell-based
# L1210 = experiment: Anticancer activity against mouse L1210 cells; type: functional; settings: read-out: ED50 (the source's name)
# Sarcoma-180 = experiment: Antitumor activity against mouse Sarcoma-180 cells xenografted in ip dosed ICR mouse assessed as tumor growth inhibition rate administered daily for 7 days relative to control; type: functional; settings: time 7 day
# A549 [18] = experiment: Anticancer activity against human A549 cells; type: functional; settings: read-out: ED50 (the source's name)
smiles,measurement,setting,value
CC(C)=CC[C@@H](OC(=O)c1ccco1)C1=CC(=O)c2c(O)ccc(O)c2C1=O,IC50,SJRH30,470 nM
same,IC50,MOLT-4,300 nM
same,IC50,A549 [1],460 nM
CC(C)=CC[C@@H](OC(=O)CCCOc1ccc(Cl)cc1C)C1=CC(=O)c2c(O)ccc(O)c2C1=O,IC50,[2],1520 nM
same,IC50,HeLa [3],4440 nM
same,IC50,[4],16900 nM
same,IC50 at 24 h,[5],> 100000 nM
same,IC50,HepG2 [6],430 nM
CC(C)=CC[C@@H](OC(=O)Cc1ccc(Oc2ccccc2)cc1)C1=CC(=O)c2c(O)ccc(O)c2C1=O,IC50,[2],1240 nM
same,IC50,HeLa [3],4310 nM
same,IC50,[4],4310 nM
same,IC50 at 24 h,[5],> 100000 nM
same,IC50,HepG2 [6],426 nM
CC(C)=CC[C@@H](OC(=O)/C=C/c1cccc(C(F)(F)F)c1)C1=CC(=O)c2c(O)ccc(O)c2C1=O,IC50,A549 [7],1620 nM
same,IC50,[8],650 nM
same,IC50,SW872,690 nM
CC(C)=CC[C@@H](OC(=O)C(Cc1ccccc1)N1C(=O)c2ccccc2C1=O)C1=CC(=O)c2c(O)ccc(O)c2C1=O (stereo partly drawn),IC50,HeLa [9],2920 nM
same,IC50,MCF7,3050 nM
same,IC50,HepG2 [10],1690 nM
same,IC50,[11],> 100000 nM
same,IC50,A549 [12],> 100000 nM
same,IC50,L02,> 100000 nM
CC(C)=CC[C@@H](OC(=O)/C=C/c1ccc(F)c(F)c1)C1=CC(=O)c2c(O)ccc(O)c2C1=O,IC50,A549 [7],2100 nM
same,IC50,[8],550 nM
same,IC50,SW872,360 nM
CC(C)=CC[C@@H](OC(=O)[C@@H](Cc1ccccc1)N1C(=O)C2C3C=CC(C3)C2C1=O)C1=CC(=O)c2c(O)ccc(O)c2C1=O (stereo partly drawn),IC50,HeLa [9],1260 nM
same,IC50,MCF7,3550 nM
same,IC50,HepG2 [10],1920 nM
same,IC50,[11],11600 nM
same,IC50,A549 [12],> 100000 nM
same,IC50,L02,> 100000 nM
CC(C)=CC[C@@H](OC(=O)CCC(=O)Nc1ccc(Oc2ccccc2)cc1)C1=CC(=O)c2c(O)ccc(O)c2C1=O,IC50,MGC-803,4100 nM
same,IC50,U-87 MG,3800 nM
same,IC50,SGC-7901,4100 nM
same,IC50,SMMC-7721,20600 nM
same,IC50 at 48 h,[13],> 50000 nM
CC(C)=CC[C@@H](OC(=O)C1CC1)C1=CC(=O)c2c(O)ccc(O)c2C1=O,IC50,A549 [14],3730 nM
same,IC50,HeLa [15],3470 nM
same,IC50,HepG2 [16],759 nM
same,IC50 at 24 h,[17],> 100000 nM
CCCO/N=C/c1cc(O)c2c(c1O)C(=O)C=CC2=O,EC50,L1210,0.107 µg/mL
same,T/C,Sarcoma-180,229%
same,EC50,A549 [18],> 10 µg/mL
